ChEMBL document CHEMBL4715856 (Bioorg Med Chem, 2020)
pEC50, pIC50, pKi: −log10 of the molar value. In brackets after ≈: the same amount, converted by molar mass.

Experiments:
[1] = Inhibition of SARS-CoV C-terminal 6His-tagged papain-like protease expressed in Escherichia coli BL21(DE3) using ubiquitin-AMC as substrate preincubated for 10 mins followed by substrate addition by luminescence spectrometric method; set-up: species or system Severe acute respiratory syndrome-related coronavirus
[2] = Inhibition of SARS-CoV nucleocapsid protein expressed in Escherichia coli BL21 (DE3) incubated for 1 hr by quantum dots-conjugated oligonucleotide biochip-platform based confocal laser scanning microscopic analysis; set-up: species or system Severe acute respiratory syndrome-related coronavirus
[3] = Inhibition of SARS-CoV 3C-like protease expressed in Escherichia coli BL21(DE3) using DABCYL-KTSAVLQSGFRKME-EDANS as substrate preincubated for 1 hr followed by substrate addition and measured after 16 hrs by fluorescence method; set-up: species or system Severe acute respiratory syndrome-related coronavirus
[4] = Inhibition of envelope protein in HCoV-229E infected in human MRC-5 cells assessed as reduction in viral replication incubated for 6 days by crystal violet staining based plaque reduction assay; type: cell-based; settings: Human coronavirus 229E, MRC5, 144 h
[5] = Inhibition of envelope protein in Murine hepatitis virus A59 infected in mouse L929 cells assessed as reduction in viral replication incubated for 24 hrs by crystal violet staining based plaque reduction assay; type: cell-based; settings: Murine coronavirus, A59, L929, 24 h
[6] = Inhibition of MERS-CoV papain-like protease using Ub-7-amino-4-trifluoro-methylcoumarin as substrate incubated for 3 mins by fluorescence method; set-up: species or system Middle East respiratory syndrome-related coronavirus
[7] = Inhibition of SARS-CoV papain-like protease using Ub-7-amino-4-trifluoro-methylcoumarin as substrate incubated for 3 mins by fluorescence method; set-up: species or system Severe acute respiratory syndrome-related coronavirus
[8] = Inhibition of MERS-CoV (KOR/KNIH/002_05_2015) 3C-like protease expressed in Escherichia coli BL21(DE3) using Dabcyl-KTSAVLQSGFRKME-Edans as substrate by fluorometric assay; set-up: species or system Middle East respiratory syndrome-related coronavirus
[9] = Inhibition of SARS-CoV 3C-like protease expressed in Escherichia coli BL21(DE3) using Dabcyl-KTSAVLQSGFRKME-Edans as substrate by fluorometric assay; set-up: species or system Severe acute respiratory syndrome-related coronavirus
[10] = (§1) Inhibition of SARS-CoV spike protein expressed in Escherichia coli BL21(DE3)pLysS/human ACE2 using 2,2'-azinobis(3-ethylbenzthiazoline-sulfonic acid) preincubated for 2 hrs with biotinylated S protein followed by incubation with ACE2 for 1 hr and subsequent substrate addition by competitive biotinylated ELISA
[11] = as §1, with “acid) at 10 nmol” for “acid)”, “ELISA relative to control” for “ELISA”; settings: time 3.0 hrs
[12] = Inhibition of SARS-CoV 3C-like protease using abz-SVTLQSG-Tyr(NO2)R as substrate by spectrofluorimetric assay; set-up: species or system Severe acute respiratory syndrome-related coronavirus
[13] = Inhibition of SARS-CoV N-terminal His-tagged 3C-like protease expressed in Escherichia coli GJ1158 using 2-aminobenzoyl-SVTLQSG-Tyr(NO2)-R as substrate by quenched-FRET assay; set-up: species or system Severe acute respiratory syndrome-related coronavirus
[14] = Inhibition of SARS-CoV(BJ-01) 3C-like protease infected in African green monkey Vero cells assessed as reduction in viral titer incubated for 48 hrs by crystal violet staining based plaque reduction assay; type: cell-based; settings: Severe acute respiratory syndrome-related coronavirus, BJ-01, Vero
[15] = Inhibition of His-tagged SARS-CoV HKU39849 3C-like protease expressed in Escherichia coli BL21 assessed as reduction in cleavage activity using H2N-TSAVLQSGFRKW-COOH as substrate preincubated for 30 mins followed by substrate addition by HPLC-based assay; set-up: species or system Severe acute respiratory syndrome-related coronavirus
[16] = Inhibition of MERS-CoV NSP13 helicase measured after 5 min by FRET-based assay; set-up: species or system Middle East respiratory syndrome-related coronavirus
[17] = Inhibition of SARS-CoV C-terminal (GPH6 residues)-fused wild type 3C-like protease expressed in Escherichia coli BL21(DE3) cells using MCA-AVLQSGFR-Lys(Dnp)-Lys-NH2 s substrate by fluorescence method; set-up: species or system Severe acute respiratory syndrome-related coronavirus
[18] = Inhibition of HcoV-EMC 3C-like protease; set-up: species or system unidentified human coronavirus
[19] = Inhibition of SARS-CoV wild type 3C-like protease using MCA-AVLQSGFR-Lys(Dnp)-Lys-NH2 s substrate by fluorescence method; set-up: species or system Severe acute respiratory syndrome-related coronavirus
[20] = Inhibition of 3C-like protease in SARS-CoV2 infected in African green monkey vero cells assessed as antiviral activity incubated for 1 hr by crystal violet staining based plaque reduction assay; type: cell-based; settings: Severe acute respiratory syndrome coronavirus 2, Vero
[21] = Inhibition of SARS-CoV NSP13 helicase in presence of DT20Cy3 and ReleaseBHQ by FRET-based assay; set-up: species or system Severe acute respiratory syndrome-related coronavirus
[22] = Inhibition of SARS-CoV wild type NSP13 helicase using Cy3-labeled 31/18-mer as substrate measured after 10 min by FRET-based assay; set-up: species or system Severe acute respiratory syndrome-related coronavirus
[23] = Inhibition of SARS-CoV NSP13 helicase using fluorescein and black hole quencher labelled dsDNA as substrate measured after 10 min by FRET-based assay; set-up: species or system Severe acute respiratory syndrome-related coronavirus
[24] = Inhibition of SARS-CoV papain-like protease (723 to 1041 residues) expressed in Escherichia coli BL21(DE3) using Arg-Leu-Arg-Gly-Gly-AMC as substrate by fluorescence method; set-up: species or system Severe acute respiratory syndrome-related coronavirus
[25] = Inhibition of SARS-CoV 3C-like protease (9970 to 10887 residues) expressed in Escherichia coli BL21(DE3) CodonPlus-RIL cells using DABCYL-KTSAVLQSGFRKME-EDANS as substrate by FRET assay; set-up: species or system Severe acute respiratory syndrome-related coronavirus
[26] = target: T1, mRNA cap guanine-N(7) methyltransferase (Homo sapiens, UniProt O43148)
[27] = system: guanine-N7 methyltransferase (human versus SARS coronavirus WHU); assay: in vitro
[28] = system: guanine-N7 methyltransferase (human versus SARS-CoV); assay: in vitro
[29] = target: T1, mRNA cap guanine-N(7) methyltransferase; remark: listed apart in the source
[30] = Inhibition of SARS-CoV 3C-like protease by FRET assay; set-up: species or system Severe acute respiratory syndrome-related coronavirus
[31] = Inhibition of MERS-CoV 3C-like protease; set-up: species or system Middle East respiratory syndrome-related coronavirus
[32] = Inhibition of SARS-CoV2 3C-like protease (3264 to 3569 residues) expressed in Escherichia coli BL21(DE3) BL21-Gold using Dabcyl-KTSAVLQSGFRKM-E(Edans)-NH2 as substrate preincubated for 10 min followed by substrate addition by FRET assay; set-up: species or system Severe acute respiratory syndrome coronavirus 2

T1 sequence (O43148 whole entry): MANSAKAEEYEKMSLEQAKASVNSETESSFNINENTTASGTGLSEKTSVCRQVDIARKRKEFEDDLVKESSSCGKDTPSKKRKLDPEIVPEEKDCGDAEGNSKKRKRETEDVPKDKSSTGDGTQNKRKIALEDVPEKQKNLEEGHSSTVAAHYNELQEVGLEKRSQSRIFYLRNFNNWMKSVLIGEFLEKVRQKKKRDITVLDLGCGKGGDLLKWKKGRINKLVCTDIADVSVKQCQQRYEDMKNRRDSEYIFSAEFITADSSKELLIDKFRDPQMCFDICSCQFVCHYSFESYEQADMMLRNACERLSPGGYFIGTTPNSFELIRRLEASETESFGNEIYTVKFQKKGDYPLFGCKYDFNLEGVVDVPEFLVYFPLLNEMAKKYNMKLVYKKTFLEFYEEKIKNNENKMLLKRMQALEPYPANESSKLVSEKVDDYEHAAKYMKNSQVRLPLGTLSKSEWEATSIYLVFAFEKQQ

## Nc1nc2[nH]cnc2c(=S)[nH]1 [THIOGUANINE]
[1]
  pIC50: 5.30

## O=C(O[C@@H]1Cc2c(O)cc(O)cc2O[C@H]1c1ccc(O)c(O)c1)c1cc(O)c(O)c(O)c1 [(-)-CATECHINGALLATE]
[2]
  IC50: 5 ng/mL (≈ 0.0113 µM)

## C[C@@H]1O[C@@H](O[C@H]2[C@@H](Oc3cc(O)c4c(=O)cc(-c5ccc(O)cc5)oc4c3)O[C@H](CO)[C@@H](O)[C@@H]2O)[C@H](O)[C@H](O)[C@H]1O
[3]
  pIC50: 4.56

## N=C(N)NC(=O)c1nc(Cl)c(N2CCCCCC2)nc1N [N,N-HEXAMETHYLENEAMILORIDE]
[4]
  pEC50: 5.87
[5]
  pEC50: 5.41

## CCN(CC)C(=S)SSC(=S)N(CC)CC
[6]
  pIC50: 4.64
[7]
  pIC50: 4.85

## O=C[C@H](C[C@@H]1CCNC1=O)NC(=O)[C@H](Cc1ccccc1)NC(=O)/C=C/c1ccc(Cl)cc1F
[8]
  pIC50: 5.77
[9]
  pIC50: 6.70

## H-SQKSIVAYTM-NH2
[10]
  pIC50: 8.74
[11]
  inhibition: 90%

## O=C(O[C@@H]1Cc2c(O)cc(O)cc2O[C@H]1c1cc(O)c(O)c(O)c1)c1cc(O)c(O)c(O)c1 [GALLOCATECHIN GALLATE]
[2]
  IC50: 5 ng/mL (≈ 0.0109 µM)

## O=C(Cc1cncc(Br)c1)c1ccc(-c2ccc(Cl)cc2)o1
[12]
  pIC50: 4.89

## O=C(Oc1cncc(Cl)c1)c1cccs1
[13]
  pIC50: 6.30

## CC1=C(C(=O)OCCc2ccccc2)C(c2ccccc2[N+](=O)[O-])C2=C(CCCC2=O)N1 (stereo not drawn)
[14]
  pIC50: 5.05
[15]
  pIC50: 5.60

## Sc1nnc(NNc2ccc(I)cc2)n1NC1C=CCC1 (stereo not drawn)
[16]
  pIC50: 5.60

## Cc1cc(C(=O)N[C@@H](C)C(=O)N[C@H](C(=O)N[C@@H](CC(C)C)C(=O)N[C@H](/C=C/C(=O)OCc2ccccc2)C[C@@H]2CCNC2=O)C(C)C)no1
[17]
  pKi: 5.64
[18]
  pIC50: 6.55
[19]
  pKi: 5.72
[20]
  pEC50: 4.78

## Cc1ncc(CO)c(C23OC4(O)CC(O)(CC(O)(C4)O2)O3)c1O
[21]
  pIC50: 5.52

## C=CCn1c(S)nnc1CSc1ccccc1[N+](=O)[O-]
[22]
  pIC50: 5.23
[23]
  pIC50: 5.22

## C=C(C)C(Cc1c(OC)ccc(C(=O)/C=C/c2ccc(O)cc2)c1O)C(=O)O (stereo not drawn)
[24]
  pIC50: 5.92
[25]
  pIC50: 4.94

## Nc1ncnc2c1ncn2[C@@H]1O[C@H](C[C@@H](N)CC[C@H](N)C(=O)O)[C@@H](O)[C@H]1O [SINEFUNGIN]
[26]
  pIC50: > 7.30
[27]
  selectivity ratio: 0.32
[28]
  selectivity ratio: < 2.63
[29]
  pIC50: 9.26

## CC(C)(C)OC(=O)Nc1cccn([C@@H](CC2CC2)C(=O)N[C@@H](C[C@@H]2CCCC2=O)C(=O)C(=O)NCc2ccccc2)c1=O
[30]
  pIC50: 6.05
[31]
  pIC50: 6.24
[32]
  pIC50: 6.17
